For data set [1], the target named is recombinant human CCR5 receptor (Homo sapiens, UniProt P51681). Briefly: in vitro radioligand binding assay: inhibition of MIP-1α binding. Particulars: displacement of 0.1 nM iodinated MIP-1α; membranes from Chinese hamster ovary cells expressing recombinant human CCR5; scintillation proximity; average if tested more than once. The protocol: The ability of compounds to inhibit the binding of MIP-1α was assessed by an in vitro radioligand binding assay. Membranes were prepared from Chinese hamster ovary cells which expressed the recombinant human CCR5 receptor. These membranes were incubated with 0.1 nM iodinated MIP-1α, scintillation proximity beads and various concentrations of the compounds of the invention in 96-well plates. The amount of iodinated MIP-1α bound to the receptor was determined by scintillation counting. Competition curves were obtained for compounds and the concentration of compound which displaced 50% of bound iodinated MIP-1α was calculated (IC50).
Chain of recombinant human CCR5 receptor (P51681 whole entry): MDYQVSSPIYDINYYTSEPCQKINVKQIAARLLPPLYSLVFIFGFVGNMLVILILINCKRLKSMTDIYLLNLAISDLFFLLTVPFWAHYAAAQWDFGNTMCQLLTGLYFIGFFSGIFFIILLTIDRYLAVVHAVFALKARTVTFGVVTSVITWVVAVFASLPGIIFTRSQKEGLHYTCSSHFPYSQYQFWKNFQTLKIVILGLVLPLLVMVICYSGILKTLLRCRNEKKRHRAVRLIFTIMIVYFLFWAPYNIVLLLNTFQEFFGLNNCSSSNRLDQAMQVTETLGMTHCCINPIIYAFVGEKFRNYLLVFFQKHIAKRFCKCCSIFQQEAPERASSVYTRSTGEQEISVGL
In Table XII the results are presented as Pic50 values. A Pic50 value is the negative log (to base 10) of the IC50 result, so an IC50 of 1 μM (that is 1×10^−6M) gives a Pic50 of 6. If a compound was tested more than once then the data below is an average of the probative tests results.
(In general: SPA uses beads or plates that emit light when radiolabelled molecules are held near them.)

The structures appear in SMILES notation.

Broadly, the IC50 is the concentration that gives 50% inhibition. For orientation: melting point means the temperature, or range, at which the solid turns liquid. For `CS(=O)(=O)c1ccc2c(c1)ncn2C1CCN(CC[C@@H](c2cc(F)cc(F)c2)C2CCN(S(C)(=O)=O)CC2)CC1` [Table II Compound 5, 1-(1-{(3R)-3-(3,5-difluorophenyl)-3-[1-(methylsulfonyl)piperidin-4-yl]propyl}piperidin-4-yl)-5-(methylsulfonyl)-1H-benzimidazole], the melting point was 161 °C. The half-maximal inhibitory concentration (IC50) in data set [1] was 0.501 nM.

Turning to `CCS(=O)(=O)N1CCN(C(CCN2CCC(n3cnc4cc(S(C)(=O)=O)ccc43)CC2)c2ccccc2)CC1` (stereo not shown) [Table I Compound 1, 1-(1-{3-[4-(ethylsulfonyl)piperazin-1-yl]-3-phenylpropyl}piperidin-4-yl)-5-(methylsulfonyl)-1H-benzimidazole], in data set [1], the IC50 is 251 nM.

As for `Cc1nnc(C(C)C)n1C1CCN(CC[C@@H](c2ccccc2)N2CCN(S(=O)(=O)c3ccccc3)CC2)CC1` [Table II Compound 1, 1-{(1S)-3-[4-(3-isopropyl-5-methyl-4H-1,2,4-triazol-4-yl)piperidin-1-yl]-1-phenylpropyl}-4-(phenylsulfonyl)piperazine], the 50% inhibitory concentration (IC50) in data set [1] is 31.6 nM.

(Values after patent publication US7615555B2, “Piperidine derivatives as modulators of chemokine receptor CCR5” (AstraZeneca AB, priority 2004, dated 2009).)
